Legend:
Format in all cases: ADME, organism-based
Homo sapiens [1] = test: Oral clearance of Rosiglitazone evaluated after oral or intravenous administration of C-14 Rosiglitazone Maleate; settings: in vivo, dosed compound id 5, dosed compound name ROSIGLITAZONE MALEATE
[2] = (§1) Mean pharmacokinetic parameters for Rosiglitazone following single oral doses to 32 healthy fasted or fed subjects.; design: dose 8 mg, dose 2 mg, dose 1 mg, route oral; settings: human, in vivo; dietary status Fasting, dose 1 mg, dosed compound id 50, dosed compound name ROSIGLITAZONE, gender male and female, regimen Single dose, route oral, tissue Plasma
Homo sapiens [3] = test: as §1; design: dose 8 mg, dose 2 mg, dose 1 mg, route oral; settings: in vivo, po, dosed compound id 50, dosed compound name ROSIGLITAZONE, gender male and female, regimen Single dose, tissue Plasma
[4] = dietary status Fasting, dose 2 mg
[5] = dietary status Fasting, dose 8 mg

Excretion (Homo sapiens [1]; tissue Feaces): 23% | Excretion (Homo sapiens [1]; tissue Urine): 64% | CL/F [2]: 50.5 mL/min | half-life [2]: 190 min | CL/F (Homo sapiens [3]; [4]): 2.89 L/h | t1/2 (Homo sapiens [3]; [4]): 3.15 h | CL/F (Homo sapiens [3]; [5]): 2.85 L/h | t1/2 (Homo sapiens [3]; [5]): 3.37 h | CL/F (Homo sapiens [3]; dietary status Fed, dose 8 mg): 2.97 L/h | t1/2 (Homo sapiens [3]; dietary status Fed, dose 8 mg): 3.59 h | AUC(0 to inf) (Homo sapiens [3]; dietary status Fed): 2890 ng·h/mL | Cmax (Homo sapiens [3]; dietary status Fed): 432 ng/mL
Compound: CN(CCOc1ccc(CC2SC(=O)NC2=O)cc1)c1ccccn1.O=C(O)/C=C\C(=O)O (configuration not stated) [ROSIGLITAZONE MALEATE]
